Data published in ChEMBL document CHEMBL1201862, “PubChem BioAssay data set” (2004).
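Five concentrations, 48 hours, 96-well plates. GI50 = concentration required for 50% inhibition of growth.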 Active and inactive are the calls of the source. No stated cut-off is given here; in the data, active = GI50 up to about 1.1 µM and inactive = higher.

What was measured:
Experiment in all cases: NCI-60 cell line screen, 48 h
[1] = system: A549
[2] = system: ACHN
[3] = system: EKVX
[4] = system: HCT-15
[5] = system: HL-60
[6] = system: MOLT-4
[7] = system: Malme-3M
[8] = system: NCI-H226
[9] = system: NCI-H23
[10] = system: NCI-H460
[11] = system: NCI/ADR-RES
[12] = system: OVCAR-3
[13] = system: OVCAR-5
[14] = system: SF-268
[15] = system: SF-295
[16] = system: SK-MEL-2
[17] = system: SK-MEL-5
[18] = system: SW-620
[19] = system: COLO 205
[20] = system: SF-539

SMILES | GI50 [1] | GI50 [2] | GI50 [3] | GI50 [4] | GI50 [5] | GI50 [6] | GI50 [7] | GI50 [8] | GI50 [9] | GI50 [10] | GI50 [11] | GI50 [12] | GI50 [13] | GI50 [14] | GI50 [15] | GI50 [16] | GI50 [17] | GI50 [18] | GI50 [19] | GI50 [20]
Cc1cnc2cc(Cl)ccc2c1SCC(=O)O | > 100 µM (inactive) | > 100 µM (inactive) | > 100 µM (inactive) | > 100 µM | > 100 µM (inactive) | > 100 µM (inactive) | > 100 µM (inactive) | > 100 µM (inactive) | > 100 µM (inactive) | > 100 µM (inactive) | > 100 µM (inactive) | > 100 µM (inactive) | > 100 µM (inactive) | > 100 µM (inactive) | > 100 µM (inactive) | > 100 µM (inactive) | > 100 µM (inactive) | > 100 µM (inactive) | – | –
Cc1ccc(S(=O)(=O)c2ccc([N+](=O)[O-])o2)cc1 | 8.81 µM (inactive) | 1.59 µM (inactive) | 3.24 µM (inactive) | 1.17 µM | – | 0.337 µM (active) | 1.08 µM (active) | 10.8 µM (inactive) | 3.52 µM (inactive) | 14.1 µM (inactive) | 2.25 µM (inactive) | 1.76 µM (inactive) | 2.01 µM (inactive) | 11.1 µM (inactive) | 19.8 µM (inactive) | 9.89 µM (inactive) | 11 µM (inactive) | 0.468 µM (active) | 0.916 µM (active) | 1.91 µM (inactive)
N#Cc1c(N2CCN(c3ccc([N+](=O)[O-])cc3)CC2)[n+]([O-])c2ccc(Cl)cc2[n+]1[O-] | 2.02 µM (inactive) | 0.789 µM (active) | 1.71 µM (inactive) | 0.627 µM | – | 1.18 µM (inactive) | 2 µM (inactive) | 2.29 µM (inactive) | 1.71 µM (inactive) | 0.0644 µM (active) | 1.07 µM (active) | 0.745 µM (active) | 3.4 µM (inactive) | 1.86 µM (inactive) | 1.91 µM (inactive) | 2.2 µM (inactive) | 6.38 µM (inactive) | 0.646 µM (active) | 3.24 µM (inactive) | 1.15 µM (inactive)
N=c1oc2cc(O)ccc2cc1C(=O)NCc1ccccc1 | 31.8 µM (inactive) | 14.5 µM (inactive) | 32.8 µM (inactive) | 27.2 µM | – | 15.7 µM (inactive) | 21.7 µM (inactive) | 32.8 µM (inactive) | 19.5 µM (inactive) | 25.8 µM (inactive) | 19.7 µM (inactive) | 22.6 µM (inactive) | 53.7 µM (inactive) | 23.1 µM (inactive) | 35.2 µM (inactive) | 14.4 µM (inactive) | 12.9 µM (inactive) | 22.6 µM (inactive) | 12.4 µM (inactive) | 21.9 µM (inactive)
CC(C)(C)c1ccc2c(c1)C#Cc1cc3c(cc1OCCCO2)C#Cc1cc(C(C)(C)C)ccc1OCCCO3 | > 100 µM (inactive) | > 100 µM (inactive) | > 100 µM (inactive) | 2.45 µM | > 100 µM (inactive) | > 100 µM (inactive) | > 100 µM (inactive) | – | 2.2 µM (inactive) | > 100 µM (inactive) | 10.6 µM (inactive) | > 100 µM (inactive) | > 100 µM (inactive) | > 100 µM (inactive) | > 100 µM (inactive) | > 100 µM (inactive) | > 100 µM (inactive) | > 100 µM (inactive) | > 100 µM (inactive) | > 100 µM (inactive)
CSc1ccc(/C=C2\N=C(c3ccccc3)N(c3nc4cc(Cl)c(F)cc4s3)C2=O)cc1 | 33.7 µM (inactive) | 36.4 µM (inactive) | 28.3 µM (inactive) | 76.9 µM | 38.3 µM (inactive) | 29.6 µM (inactive) | – | – | – | 57.3 µM (inactive) | 32.2 µM (inactive) | 19.8 µM (inactive) | 71.3 µM (inactive) | 32.3 µM (inactive) | 51.2 µM (inactive) | 18.2 µM (inactive) | 28.4 µM (inactive) | 71.8 µM (inactive) | 54.5 µM (inactive) | 26.3 µM (inactive)
CCN1CCC(O)(c2ccc(Oc3ccccc3)cc2)C(C(=O)c2ccc(Oc3ccccc3)cc2)C1 (stereo not given) | 13.5 µM (inactive) | 15.5 µM (inactive) | 16 µM (inactive) | 12.2 µM | 3.75 µM (inactive) | 13 µM (inactive) | 17.1 µM (inactive) | – | 13.4 µM (inactive) | 3.85 µM (inactive) | 16.2 µM (inactive) | 14.8 µM (inactive) | 15.4 µM (inactive) | 16.3 µM (inactive) | 14.2 µM (inactive) | 15.1 µM (inactive) | 12.5 µM (inactive) | 12.1 µM (inactive) | 13.6 µM (inactive) | 8.45 µM (inactive)
CC1(C)CC2C(/C1=N/O)C1(C)CCCC2(C)C1O (stereo not given) | > 100 µM (inactive) | > 100 µM (inactive) | > 100 µM (inactive) | > 100 µM | > 100 µM (inactive) | > 100 µM (inactive) | > 100 µM (inactive) | > 100 µM (inactive) | > 100 µM (inactive) | > 100 µM (inactive) | > 100 µM (inactive) | > 100 µM (inactive) | > 100 µM (inactive) | > 100 µM (inactive) | > 100 µM (inactive) | > 100 µM (inactive) | > 100 µM (inactive) | > 100 µM (inactive) | > 100 µM (inactive) | –
CC(C#N)Nc1ccc(Oc2ccc(C(C)(C)c3ccc(Oc4ccc(NC(C)C#N)cc4)cc3)cc2)cc1 (stereo not given) | > 100 µM (inactive) | > 100 µM (inactive) | > 100 µM (inactive) | > 100 µM | – | 16.5 µM (inactive) | > 100 µM (inactive) | > 100 µM (inactive) | 40.9 µM (inactive) | > 100 µM (inactive) | > 100 µM (inactive) | > 100 µM (inactive) | > 100 µM (inactive) | 86.5 µM (inactive) | > 100 µM (inactive) | > 100 µM (inactive) | 50.6 µM (inactive) | > 100 µM (inactive) | > 100 µM (inactive) | > 100 µM (inactive)
COc1ccc(C(OC(=O)[C@H](O[Si](C)(C)C(C)(C)C)[C@@H](NC(=O)c2ccccc2)c2ccccc2)c2ccc(OC)cc2)cc1 | > 100 µM (inactive) | > 100 µM (inactive) | > 100 µM (inactive) | > 100 µM | – | 52 µM (inactive) | > 100 µM (inactive) | > 100 µM (inactive) | > 100 µM (inactive) | > 100 µM (inactive) | > 100 µM (inactive) | > 100 µM (inactive) | > 100 µM (inactive) | > 100 µM (inactive) | 3.75 µM (inactive) | > 100 µM (inactive) | 77.1 µM (inactive) | > 100 µM (inactive) | > 100 µM (inactive) | > 100 µM (inactive)
CN(C)CCCNC(=O)c1cc2/c(=C\c3ccc(N(C)C)cc3)c3ccccc3n2[n+]1C | > 100 µM (inactive) | > 100 µM (inactive) | 17.9 µM (inactive) | > 100 µM | 11.9 µM (inactive) | 34.8 µM (inactive) | 23.1 µM (inactive) | – | 21.3 µM (inactive) | 51.2 µM (inactive) | > 100 µM (inactive) | 15.4 µM (inactive) | 56.6 µM (inactive) | 32.6 µM (inactive) | 40.3 µM (inactive) | 17.6 µM (inactive) | 15.6 µM (inactive) | 31.1 µM (inactive) | 8.73 µM (inactive) | 21.2 µM (inactive)
CC(C)(C)OC(=O)[N+](=N)C(=O)C1CCC(=O)N1C(=O)OCc1ccccc1 (stereo not given) | > 100 µM (inactive) | > 100 µM (inactive) | > 100 µM (inactive) | – | > 100 µM (inactive) | > 100 µM (inactive) | > 100 µM (inactive) | > 100 µM (inactive) | > 100 µM (inactive) | > 100 µM (inactive) | > 100 µM (inactive) | > 100 µM (inactive) | > 100 µM (inactive) | > 100 µM (inactive) | > 100 µM (inactive) | – | > 100 µM (inactive) | > 100 µM (inactive) | > 100 µM (inactive) | –
O=C1c2nc3n(c2C(=O)c2c1nc1n2CCC1)CCC3 | 4.39 µM (inactive) | 10.9 µM (inactive) | 15.6 µM (inactive) | 5.79 µM | – | 5.46 µM (inactive) | 0.904 µM (active) | 6.97 µM (inactive) | 2.49 µM (inactive) | 1.82 µM (inactive) | > 10 µM (inactive) | 2.71 µM (inactive) | 16.9 µM (inactive) | 8.28 µM (inactive) | 5.37 µM (inactive) | 3.66 µM (inactive) | 1.44 µM (inactive) | 5.13 µM (inactive) | 5.89 µM (inactive) | 3.64 µM (inactive)
COc1ccc(/C=C2\CCCCCC2=O)cc1 | > 100 µM (inactive) | > 100 µM (inactive) | > 100 µM (inactive) | > 100 µM | – | > 100 µM (inactive) | > 100 µM (inactive) | > 100 µM (inactive) | > 100 µM (inactive) | > 100 µM (inactive) | > 100 µM (inactive) | > 100 µM (inactive) | > 100 µM (inactive) | > 100 µM (inactive) | > 100 µM (inactive) | > 100 µM (inactive) | > 100 µM (inactive) | > 100 µM (inactive) | > 100 µM (inactive) | > 100 µM (inactive)
O=c1[nH]c(=O)n([C@H]2C[C@H](O)[C@@H](CO)O2)cc1Br [BROXURIDINE] | > 100 µM (inactive) | > 100 µM (inactive) | > 100 µM (inactive) | > 63.5 µM | – | > 100 µM (inactive) | > 85.9 µM (inactive) | > 100 µM (inactive) | > 100 µM (inactive) | > 100 µM (inactive) | > 100 µM (inactive) | 25.9 µM (inactive) | > 100 µM (inactive) | > 100 µM (inactive) | > 100 µM (inactive) | > 100 µM (inactive) | > 100 µM (inactive) | > 100 µM (inactive) | > 100 µM (inactive) | > 100 µM (inactive)
